Data from patent publication US8609708B2 (Human BioMolecular Research Institute, priority 2003, dated 2013).

How the values were obtained:
[1] = molecular target: CYP2D6 (Homo sapiens (Human), UniProt P10635); test: CYP2D6 Vivid blue substrate O-dealkylation inhibition; format: biochemical; conditions: Table 4; unit inferred; read-out: 2D6 IC50 ± SD
[2] = molecular target: CYP2E1 (Homo sapiens (Human), UniProt P05181); test: CYP2E1 Vivid blue substrate O-dealkylation inhibition; format: biochemical; conditions: Table 4; unit inferred; read-out: 2E1 IC50 ± SD
Chain of CYP2E1 (P05181 whole entry, the tested form may be a part): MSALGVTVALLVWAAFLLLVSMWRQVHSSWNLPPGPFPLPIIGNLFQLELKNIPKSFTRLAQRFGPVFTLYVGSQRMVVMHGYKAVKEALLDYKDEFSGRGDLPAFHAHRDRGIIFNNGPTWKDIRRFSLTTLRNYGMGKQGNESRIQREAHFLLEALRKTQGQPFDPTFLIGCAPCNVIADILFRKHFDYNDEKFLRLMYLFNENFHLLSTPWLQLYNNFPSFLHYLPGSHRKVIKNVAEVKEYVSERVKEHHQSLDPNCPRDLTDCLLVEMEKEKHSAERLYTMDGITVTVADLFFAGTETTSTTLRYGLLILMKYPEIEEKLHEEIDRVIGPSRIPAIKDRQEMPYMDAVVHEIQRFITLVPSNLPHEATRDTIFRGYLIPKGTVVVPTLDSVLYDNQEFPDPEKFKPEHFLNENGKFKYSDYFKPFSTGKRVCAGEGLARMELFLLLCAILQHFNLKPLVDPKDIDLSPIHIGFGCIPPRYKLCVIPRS

[3] = molecular target: P450 2A6dH (Homo sapiens (Human), UniProt P11509, INS494HHHH); test: Difference spectra of test compounds with N-terminal truncated CYP2A6
Chain of P450 2A6dH (P11509 other isoform, or with tags, fused parts or gaps 1-28 replaced by MAKKTS/ins HHHH behind 494): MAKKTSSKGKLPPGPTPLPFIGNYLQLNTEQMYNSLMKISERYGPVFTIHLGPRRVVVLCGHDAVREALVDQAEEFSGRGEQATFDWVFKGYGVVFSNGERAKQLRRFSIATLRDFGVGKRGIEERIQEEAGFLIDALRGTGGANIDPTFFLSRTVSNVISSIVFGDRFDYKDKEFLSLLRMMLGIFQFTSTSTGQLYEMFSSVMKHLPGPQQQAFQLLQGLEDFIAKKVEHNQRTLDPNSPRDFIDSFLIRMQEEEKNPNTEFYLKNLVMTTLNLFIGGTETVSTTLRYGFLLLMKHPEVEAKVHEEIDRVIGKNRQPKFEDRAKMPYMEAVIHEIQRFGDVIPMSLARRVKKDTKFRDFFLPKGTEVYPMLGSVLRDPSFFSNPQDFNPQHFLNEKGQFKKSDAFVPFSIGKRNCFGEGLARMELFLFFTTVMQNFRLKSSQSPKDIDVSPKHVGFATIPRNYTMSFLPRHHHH
Experimental: Subsequently, test compound (in 100% ethanol, 10 μM) was added to both the cuvettes. The maximal ethanol concentration used was 2%. The difference spectra were obtained after the system reached equilibrium (3 min). All spectra were recorded at 25° C.

[4] = Mouse liver microsome stability assay; conditions: mouse, microsomes, pH 7.4
Experimental: The residue was reconstituted in methanol (200 μL), centrifuged at 13,000 rpm for 5 min and the supernatant was analyzed by high-performance liquid chromatography with an Axxi-chrom (straight-phase) silica column (4.6 mm×250 mm, 5 μm) or with a Supelco (reverse-phase) HS F5 pentafluorophenyl column (4.6 mm×250 mm, 5 μm).

[5] = in vitro; conditions: human, microsomes, pH 7.4
[6] = molecular target: CYP3A4 relative to CYP2A6 (Homo sapiens (Human), UniProt P08684); test: in vitro; conditions: human, pH 7.5
Chain of CYP3A4 relative to CYP2A6 (P08684 whole entry): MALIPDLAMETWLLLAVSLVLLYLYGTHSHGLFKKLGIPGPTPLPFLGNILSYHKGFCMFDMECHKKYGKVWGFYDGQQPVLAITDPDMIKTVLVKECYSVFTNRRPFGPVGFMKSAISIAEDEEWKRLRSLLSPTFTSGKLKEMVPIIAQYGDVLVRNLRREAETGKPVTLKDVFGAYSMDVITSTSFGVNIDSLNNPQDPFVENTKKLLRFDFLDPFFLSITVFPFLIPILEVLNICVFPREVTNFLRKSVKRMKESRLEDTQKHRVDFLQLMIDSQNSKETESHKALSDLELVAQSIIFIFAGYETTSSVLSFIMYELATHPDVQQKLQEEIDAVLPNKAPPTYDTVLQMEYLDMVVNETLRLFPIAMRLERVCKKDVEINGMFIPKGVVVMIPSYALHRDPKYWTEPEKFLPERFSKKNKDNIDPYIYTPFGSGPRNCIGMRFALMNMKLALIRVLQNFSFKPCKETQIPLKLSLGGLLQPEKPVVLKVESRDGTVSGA

[7] = tested on: male Wistar rats; test: Nicotine self-administration in nicotine-addicted rats; format: in vivo, rat
[8] = molecular target: human CYP2A6 (Homo sapiens (Human), UniProt P11509)
Chain of human CYP2A6 (P11509 whole entry): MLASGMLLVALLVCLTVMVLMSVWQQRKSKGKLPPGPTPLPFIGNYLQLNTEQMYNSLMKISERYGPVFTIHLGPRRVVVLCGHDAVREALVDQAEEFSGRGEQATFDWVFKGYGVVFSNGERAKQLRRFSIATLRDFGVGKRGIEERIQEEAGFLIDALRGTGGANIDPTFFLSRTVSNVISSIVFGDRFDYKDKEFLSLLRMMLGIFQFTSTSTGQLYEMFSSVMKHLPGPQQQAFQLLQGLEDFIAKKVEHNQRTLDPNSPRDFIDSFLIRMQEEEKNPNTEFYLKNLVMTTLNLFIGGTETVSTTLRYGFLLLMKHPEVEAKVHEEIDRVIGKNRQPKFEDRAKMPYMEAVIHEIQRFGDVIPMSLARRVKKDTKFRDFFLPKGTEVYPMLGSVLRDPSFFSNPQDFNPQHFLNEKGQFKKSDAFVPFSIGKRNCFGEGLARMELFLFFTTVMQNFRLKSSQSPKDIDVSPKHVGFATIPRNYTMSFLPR

[9] = tested on: NNK-dependent tumorigenesis in mice; conditions: mouse, in vivo; cited from earlier work
[10] = molecular target: CYP2A13 (Homo sapiens (Human), UniProt Q16696); conditions: cited from earlier work
Chain of CYP2A13 (Q16696 whole entry): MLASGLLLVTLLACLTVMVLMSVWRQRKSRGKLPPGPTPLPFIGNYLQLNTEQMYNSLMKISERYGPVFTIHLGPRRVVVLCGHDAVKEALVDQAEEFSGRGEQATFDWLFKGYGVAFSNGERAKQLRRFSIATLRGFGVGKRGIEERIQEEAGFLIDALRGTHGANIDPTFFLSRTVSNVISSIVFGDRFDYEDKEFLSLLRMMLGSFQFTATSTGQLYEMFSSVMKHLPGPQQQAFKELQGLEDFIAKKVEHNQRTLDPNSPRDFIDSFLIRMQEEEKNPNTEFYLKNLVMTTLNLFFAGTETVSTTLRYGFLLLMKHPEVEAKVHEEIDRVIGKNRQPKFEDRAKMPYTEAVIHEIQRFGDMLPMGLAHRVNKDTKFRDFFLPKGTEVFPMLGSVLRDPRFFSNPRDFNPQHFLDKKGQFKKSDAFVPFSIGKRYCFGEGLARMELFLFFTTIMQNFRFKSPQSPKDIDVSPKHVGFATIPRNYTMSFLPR

Chain of CYP2D6 (P10635 whole entry): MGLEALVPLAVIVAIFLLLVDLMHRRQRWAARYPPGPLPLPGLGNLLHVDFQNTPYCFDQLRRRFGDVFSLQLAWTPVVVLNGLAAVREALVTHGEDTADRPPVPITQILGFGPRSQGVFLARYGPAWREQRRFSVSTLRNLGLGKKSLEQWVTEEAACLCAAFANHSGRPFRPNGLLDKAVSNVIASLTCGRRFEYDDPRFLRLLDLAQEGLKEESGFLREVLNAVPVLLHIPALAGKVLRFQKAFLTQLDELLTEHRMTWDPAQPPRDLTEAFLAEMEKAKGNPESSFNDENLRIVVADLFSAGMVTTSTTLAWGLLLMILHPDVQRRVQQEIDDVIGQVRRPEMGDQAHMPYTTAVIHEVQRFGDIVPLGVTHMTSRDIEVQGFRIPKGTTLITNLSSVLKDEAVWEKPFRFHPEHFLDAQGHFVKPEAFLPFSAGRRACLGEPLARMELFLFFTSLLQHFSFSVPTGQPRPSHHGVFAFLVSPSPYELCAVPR

In the case of `NCc1ccc(-c2cccnc2)s1` [Compound 1a], the IC50 [1] is reported as 169 ± 17 µM, the IC50 [2] is reported as 40.2 ± 18.1 µM and the λmax ([3]; difference spectrum) is reported as 428 nm. For the same molecule, the λmin ([3]; difference spectrum) was 409 nm, the binding type ([3]; difference spectrum with truncated CYP2A6) was “Type II” and the half-life at 40 μM [4] was 60 min. For the same molecule, the half-life [5] was 39 min.
In the case of `NCc1ccc(-c2cccnc2)o1` [Compound 2], the selectivity ratio at 30 min [6] is reported as 174, the “in vivo activity against nicotine self-administration (in words)” value ([7]; nicotine addicted rats) is reported as “significant in vivo activity” and the “decrease of nicotine self-administration” value ([7]; rat, day 50, dihydrochloride salts in sterile saline, compound 2 16 mg/kg, compound 14 15 mg/kg) is reported as 70%. For the same molecule, the “CYP2A6 inhibition (in words)” value [8] was “significant inhibition” and the IC50 ([8]; human, pH 7.5) was 0.268 ± 0.021 µM.
For `COc1c2occc2cc2ccc(=O)oc12` [methoxsalen (9-methoxypsoralen), 9-methoxypsoralen], the “NNK-dependent tumorigenesis in mice (in words)” value [9] is listed as “strongly inhibited”.
In the case of `COc1c2occc2cc2ccc(=O)oc12` [methoxypsoralen (8-methoxypsoralen), 8-methoxypsoralen], the Ki [10] is listed as 0.11 µM.
